Results reported in US20220168310A1, “INHIBITION OF ADENOVIRUS WITH FILOCICLOVIR” (Microbiotix, Inc., priority 2019, published 2022).
Entries after “also recorded” stand apart in the source; their conditions may differ.

What was measured:
Human AdV6 = test: Low dose filociclovir against intravenously administered AdV6 in immunosuppressed hamsters (Example 6); settings: for AdV6-induced liver damage, serum transaminase (ALT) / AdV6 replication in the liver: 5 days post challenge; for AdV6 replication in the liver: TCID50
Protocol: Three dose levels were tested: 1, 3, and 10 mg/kg p.o. q.d.
All hamsters were immunosuppressed using cyclophosphamide (CP) administered intraperitoneally at a dose of 140 mg/kg, and then twice weekly at a dose of 100 mg/kg. Filociclovir in powdered form was suspended in 0.4% carboxymethyl cellulose (Sigma C5678) at 0.1, 0.3, and 1.0 mg/ml and sonicated to visual homogeneity. Filociclovir was made up once weekly, aliquoted into daily portions, and stored at 4° C. Aliquots were allowed to equilibrate to room temperature before dosing.
Hamsters were distributed into 7 groups, 15 hamsters/group (see Table 4), immunosuppressed as described above, and injected i.v. with vehicle (Groups 1-2) or 4×10^10 PFU/kg of AdV6 (Groups 3-7). Groups 1 and 3 received drug vehicle (p.o. q.d.), Groups 2 and 6 received 10 mg/kg filociclovir (p.o. q.d.), Group 4 received 3 mg/kg filociclovir (p.o. q.d.), Group 5 received 1 mg/kg filociclovir (p.o. q.d.), and Group 7 received cidofovir (one dose of 37 mg/kg, followed by 20 mg/kg doses 3 times weekly). For all groups, drug administration started 1 day before challenge, and continued according to the schedule above for the duration of the study.
The body weights and any signs of morbidity of the animals were monitored and recorded daily. At 5 days post challenge, 5 hamsters (designated at the start of the experiment) from each group were sacrificed, and gross pathological observation was performed. Serum and liver were collected and virus burden in liver was determined by TCID50 assay and the serum was analyzed for transaminase levels. The remaining 10 hamsters were sacrificed at 14 days post challenge. Hamsters that became moribund before Day 14 were sacrificed as needed. In addition to the animals judged moribund by observation, we sacrificed all hamsters that lost more than 20% of their original body weight. For all animals, liver tissue was preserved in formalin for histopathological examination.

AdV5 = test: Immunofluorescence assay (DBP and hexon staining), AdV5-infected A549 cells; type: cell-based, human adenovirus; settings: 27 hours post-infection
Protocol: (§1) Human A549 cells on glass coverslips in 6-well plates were infected at an MOI of 5 PFU/cell with either AdV5 or AdV6 or were mock-infected. After 1 hour, filociclovir was added to a final concentration of 0, 4, 10, or 40 μM. At 27 hours post-infection, the A549 cells were fixed in paraformaldehyde (3.7% in PBS) and permeabilized with methanol. Cells were stained for the Adenovirus DNA-binding protein and adenovirus hexon. DBP staining will be […] and uniform during early AdV infection (prior to AdV DNA replication). DBP associates with replication centers as the infection progresses. The replication centers are initially small “dots” (each dot results from one incoming AdV genome). The replication centers will expand and “multiply” as DNA replication takes place. The nuclei become enlarged and misshapen as infection progresses. AdV hexon, the most abundant component of the AdV viral capsid, is not expressed until after DNA replication is taking place and is therefore considered to be a “late” AdV protein.

AdV6 = test: Immunofluorescence assay (DBP and hexon staining), AdV6-infected A549 cells; type: cell-based, human adenovirus; settings: 27 hours post-infection
Protocol: as §1

adenovirus = test: Dose-dependent inhibition of adenovirus infection (summary statement); type: cell-based; settings: unidentified adenovirus
adenovirus 37 (AdV37) = test: Efficacy against adenovirus 37 (data not shown)
adenovirus 7 (AdV7) = test: CPE reduction assay, adenovirus 7; type: cell-based, human adenovirus
Protocol: Similar experiments were carried out with filociclovir against adenovirus 6, adenovirus 7, and adenovirus 8.

adenovirus 4 (AdV4) = test: Efficacy against adenovirus 4 (data not shown)
adenovirus 3 (AdV3) = test: Efficacy against adenovirus 3 (data not shown)
[1] = 10 mg/kg q.d., listed as filociclovir

## Nc1nc2c(ncn2/C=C2/CC2(CO)CO)c(=O)[nH]1 [FCV, 2-amino-9-{(Z)-[2,2-bis(hydroxymethyl)cyclopropylidene]methyl}-3,9-dihydro-6H-purin-6-one]
Human AdV6; 1 mg/kg p.o. q.d., p=0.0449
  mortality: moderate yet significant
Human AdV6; 1 mg/kg q.d., listed as Filociclovir
  AdV6-induced liver damage, serum transaminase (ALT): ineffective
Human AdV6; 1 mg/kg q.d., listed as filociclovir
  AdV6-induced liver damage, serum transaminase (ALT): largely ineffective
Human AdV6; 1 mg/kg, listed as Filociclovir
  body weight loss: not efficacious
Human AdV6; 1 mg/kg, listed as filociclovir
  body weight loss: unable to mitigate weight loss
Human AdV6; 3 mg/kg q.d. p.o.
  mortality: completely prevented mortality
Human AdV6; 3 mg/kg q.d. p.o., listed as filociclovir
  AdV6 replication in the liver: suppressed virus replication to an intermediate level; also recorded: inhibits AdV6 replication in the liver
Human AdV6; 3 mg/kg, p=0.0419, listed as Filociclovir
  AdV6-induced liver damage, serum transaminase (ALT): mitigated the pathology
Human AdV6; 3 mg/kg, p=0.0419, listed as filociclovir
  AdV6-induced liver damage, serum transaminase (ALT): moderate yet significant effect
Human AdV6; 3 mg/kg, listed as Filociclovir
  body weight loss: moderately efficacious
Human AdV6; 3 mg/kg, listed as filociclovir
  body weight loss: partially reversed
Human AdV6; 10 mg/kg q.d. p.o.
  mortality: completely prevented mortality
Human AdV6; [1]
  AdV6 replication in the liver: inhibits AdV6 replication in the liver
  AdV6-induced liver damage, serum transaminase (ALT): prevented AdV6-induced liver damage
Human AdV6; 10 mg/kg q.d., listed as Filociclovir
  AdV6-induced liver damage, serum transaminase (ALT): mitigated the pathology
Human AdV6; 10 mg/kg, uninfected
  body weight of uninfected hamsters: did not result in body weight loss
Human AdV6; 10 mg/kg, listed as Filociclovir
  body weight loss: completely prevented body weight loss
Human AdV6; 10 mg/kg, listed as filociclovir
  body weight loss: completely reversed
Human AdV6; 1, 3, 10 mg/kg p.o. q.d.
  toxic effects in treated hamsters: No toxic effects were observed
Human AdV6; AdV6+1 mg/kg group (9 in AdV6+Vehicle)
  treatment-related deaths: 5
Human AdV6; AdV6+1 mg/kg, Day 5 sacrifice (4 in AdV6+Vehicle)
  hamsters with mottled liver and enlarged gall bladder: 3
AdV5; AdV5, 4 μM
  hexon-positive cells: Some hexon-positive cells
AdV5; AdV5, 10 μM
  hexon-positive cells: extremely few hexon-positive cells
AdV5; AdV5, 40 μM
  hexon-positive cells: No hexon-positive cells
AdV6; AdV6, 4 μM
  hexon-positive cells: Some hexon-positive cells
AdV6; AdV6, 10 μM
  hexon-positive cells: extremely few hexon-positive cells
AdV6; AdV6, 40 μM
  hexon-positive cells: No hexon-positive cells
adenovirus
  IC50: ≤ 5000 nM
Adenovirus 37 (AdV37)
  treat or prevent infection: effective
Adenovirus 7 (AdV7)
  CC50/EC50: >144
Adenovirus 7 (AdV7); Human mastadenovirus B, unit not given in Table 2 (Table 1 in μM)
  EC50: 1.04 µM
Adenovirus 4 (AdV4)
  treat or prevent infection: effective
Adenovirus 3 (AdV3)
  treat or prevent infection: effective
